Here are results for 29 molecules from the ASAP Discovery antiviral challenge data (2025).

The conditions of data set [1]: mdck_mdr1.
For data set [2] the following is noted: mouse; liver_microsomes.
The conditions of data set [3]: human; liver_microsomes.
Experiment in data set [4]: not given
This is another data set of the same source.

What is called solubility (kinetic) is solubility judged after dilution from a stock solution rather than from solid. As a reminder, the Papp is a coefficient for how fast a substance crosses the barrier. As a reminder, the microsomal CLint is a measure of how fast metabolising enzymes remove a compound, apart from limits set by blood flow. Low readings indicate greater metabolic stability, high ones faster metabolism. In general, logD refers to the decadic logarithm of the distribution of all forms, ionised or not, between an organic phase and buffer at a given pH.

SMILES strings stand for the structures. In brackets after ≈: the same amount, converted by molar mass. Several values for one entry are separate records, joined by “and”; a condition that tells them apart may be missing. Equal entries are not always repeated.

Consider `CCCC[C@H](NC(=O)OC(C)(C)C)C(=O)N[C@H](C(=O)NCc1ccc(CN)cc1)c1ccc(OCc2ccccc2)cc1` (mixture of isomers), for which the kinetic solubility worked out at 143 µM. The Papp in data set [1] was determined as 0.833 ×10⁻⁶ cm/s. The microsomal CLint in data set [2] was 7.44 µL/min/mg. For the same molecule, in data set [3], the microsomal CLint was 56 µL/min/mg.
Regarding `CC(C)NC(=O)[C@H](Nc1ccc2c(c1)CNC2)c1cc(Cl)cc2[nH]c(-c3ccccc3)nc12` (single isomer, unassigned), the solubility (kinetic) is 134 µM (≈ 61.6 µg/mL). For the same molecule, the apparent permeability (Papp) in data set [1] amounted to 0.2 ×10⁻⁶ cm/s. The molecule also yielded a microsomal CLint in data set [2] of 11 µL/min/mg. This molecule also came in with a pH-dependent lipophilicity (logD) in data set [4] of 2.8.
In the case of `O=C(Nc1cccc2c(C(=O)N[C@H]3c4ccccc4C[C@H]3C(=O)O)c[nH]c12)NC1CC1` (racemic), the Papp in data set [1] turned out to be 1.8 ×10⁻⁶ cm/s. Moreover, the microsomal CLint is 4 µL/min/mg in data set [2] and 6 µL/min/mg in data set [3]. Further, in data set [4], the logD was -0.05.
`CNC(=O)c1cc(Cl)c(F)cc1NS(=O)(=O)c1ccc(Oc2ccccc2Cl)cc1` registered a kinetic solubility of 49 µM (≈ 23 µg/mL). In data set [1], this molecule gave a Papp of 6.11 ×10⁻⁶ cm/s. This molecule also displayed a microsomal CLint in data set [2] of 45.6 µL/min/mg. In data set [3], this molecule had a microsomal CLint of 71.3 µL/min/mg.
In the case of `CNC(=O)c1cc2c(N[C@H](c3ccc4c(c3)S(=O)(=O)CCC4)C(C)C)ncnc2[nH]1` (single isomer, unassigned), the solubility (kinetic) is 374 µM and 397 µM. Moreover, in data set [1], the Papp is 0.891 ×10⁻⁶ cm/s and 0.377 ×10⁻⁶ cm/s. Further, in data set [2], the microsomal CLint was 47 µL/min/mg and 23 µL/min/mg. Further, the logD in data set [4] is 2.3 and 2.4.
Take `O=C(Nc1cc2c(c(C3=CCS(=O)(=O)CC3)c1)CNC2)c1cc(F)cc2[nH]ncc12`: the solubility (kinetic) stood at 141 µM (≈ 60.1 µg/mL). In data set [1], this molecule had a Papp of 1.3 ×10⁻⁶ cm/s. The microsomal CLint in data set [2] was determined as 96.9 µL/min/mg. This molecule had a logD in data set [4] of -0.1.
As to `COc1ccc([C@H](CC(=O)O)NC(=O)c2ncnc3[nH]ccc23)cc1` (racemic), in data set [1], the Papp is 1.7 ×10⁻⁶ cm/s. Further, the microsomal CLint was 2 µL/min/mg in data set [2] and 7 µL/min/mg in data set [3]. The logD in data set [4] is -0.38.
With `Cn1c(=O)[nH]c2c(C(=O)Nc3ccc4c(c3)CNC4)cc(Br)cc21`, the solubility (kinetic) came out at 161 µM (≈ 62.3 µg/mL). Also, the Papp in data set [1] stood at 0.805 ×10⁻⁶ cm/s. Further, the microsomal CLint in data set [2] was found to be 12.5 µL/min/mg. The same molecule yielded a logD in data set [4] of 0.5.
Take `Cn1cc2c(C(=O)Nc3ccc4c(c3)CNC4)cc(F)cc2n1`: the solubility (kinetic) worked out at 309 µM (≈ 95.9 µg/mL). The Papp in data set [1] stood at 3.4 ×10⁻⁶ cm/s. For the same molecule, the microsomal CLint in data set [2] was 18.2 µL/min/mg. In data set [4], this molecule returned a logD of 0.2.
`O=C(Nc1cc2c(cc1C1CC1)CNC2)c1cc(F)cc2[nH]ncc12` came in with a kinetic solubility of 189 µM (≈ 63.6 µg/mL). The molecule further yielded a Papp in data set [1] of 3.41 ×10⁻⁶ cm/s. Also, the microsomal CLint in data set [2] was determined as 86.8 µL/min/mg. Also, in data set [4], the logD was 0.7.
In the same order, the values of `O=C(Nc1ccc2c(c1)CNC2)c1cc(Cl)cc2[nH]ncc12` are 279 µM (≈ 87.3 µg/mL), 1.8 ×10⁻⁶ cm/s, 243 µL/min/mg and 0.9.
For `O=C(Nc1ccc2c(c1)CNC2)c1cc(Br)cc2[nH]c(-c3ccccc3)nc12`, the Papp in data set [1] was found to be 0.0942 ×10⁻⁶ cm/s. In addition, the microsomal CLint in data set [2] was determined as 43.8 µL/min/mg; in data set [3], 12.8 µL/min/mg. This molecule yielded a log distribution coefficient (logD) in data set [4] of 3.6.
For `CC(C)[C@H](Nc1ncnc2[nH]c(-c3cnn(CC(N)=O)c3)cc12)c1ccc2c(c1)OCCO2` (single isomer, unassigned), the solubility (kinetic) was 280 µM and 332 µM. Besides, in data set [1], the Papp was 1.09 ×10⁻⁶ cm/s and 1.87 ×10⁻⁶ cm/s. Moreover, in data set [2], the microsomal CLint was 16 µL/min/mg and 42 µL/min/mg. In data set [4], this molecule displayed a logD of 2.9.
Molecule `O=C(Nc1ccc2c(c1)CNC2)c1cc(Cl)cc2c1cnn2C1CCC1` registered a solubility (kinetic) of 172 µM (≈ 63.1 µg/mL). For the same molecule, the Papp in data set [1] worked out at 1 ×10⁻⁶ cm/s. In addition, the microsomal CLint in data set [2] amounted to 13.4 µL/min/mg. For the same molecule, the logD in data set [4] was determined as 2.
Regarding `COc1cc(-c2cc(NC(=O)c3cc(F)cc4[nH]ncc34)cc3c2CNC3)ccn1`, the solubility (kinetic) came to 180 µM (≈ 72.6 µg/mL). The molecule also gave a Papp in data set [1] of 0.788 ×10⁻⁶ cm/s. For the same molecule, the microsomal CLint in data set [2] is 260 µL/min/mg. For the same molecule, the logD in data set [4] is 2.
On to `CC(C)[C@H](Nc1ncnc2[nH]c(-c3cnn(C)c3C#N)cc12)c1ccc2c(c1)NC(=O)CO2` (single isomer, unassigned), for which the solubility (kinetic) was 26 µM and 19 µM. For the same molecule, the Papp in data set [1] is 1.22 ×10⁻⁶ cm/s and 2.35 ×10⁻⁶ cm/s. The microsomal CLint in data set [2] is 81 µL/min/mg and 147 µL/min/mg. In addition, in data set [3], the microsomal CLint is 115 µL/min/mg and 52 µL/min/mg.
The molecule `O=C(Nc1ccc2c(c1)CNC2)c1cc(F)cc2c1CCC2` registered a solubility (kinetic) of 187 µM (≈ 55.4 µg/mL). For the same molecule, the Papp in data set [1] amounted to 10.7 ×10⁻⁶ cm/s. Moreover, the microsomal CLint in data set [2] turned out to be 37.4 µL/min/mg. This molecule had a logD in data set [4] of 1.2.
For `Cc1cc(-c2noc(C(F)(F)F)n2)ccc1OCCCc1cc(C(=O)N(C)C)no1`, the solubility (kinetic) is 9 µM (≈ 3.82 µg/mL). In data set [1], this molecule showed a Papp of 2.26 ×10⁻⁶ cm/s. This molecule gave a microsomal CLint in data set [2] of 24.4 µL/min/mg. The same molecule returned a microsomal CLint in data set [3] of 11 µL/min/mg.
`COc1ccc([C@H](NC(=O)c2ncnc3[nH]ccc23)C(C)c2nnn[nH]2)cc1` (mixture of isomers) registered a Papp in data set [1] of 1.13 ×10⁻⁶ cm/s. Also, the microsomal CLint in data set [2] worked out at 1 µL/min/mg; in data set [3], 2 µL/min/mg. The molecule also returned a logD in data set [4] of 0.
On to `CC(C)[C@H](Nc1ncnc2[nH]ccc12)c1ccc2c(c1)NC(=O)CO2` (single isomer, unassigned), for which the kinetic solubility was 371 µM and 374 µM. Also, the Papp in data set [1] is 3.4 ×10⁻⁶ cm/s and 8.7 ×10⁻⁶ cm/s. In addition, the microsomal CLint in data set [2] was 37 µL/min/mg and 80 µL/min/mg. Also, the logD in data set [4] was 1.8 and 2.2.
Molecule `CC(C)[C@H](CO)Nc1ncnc2[nH]ccc12` came in with a Papp in data set [1] of 13.1 ×10⁻⁶ cm/s. For the same molecule, the microsomal CLint in data set [2] worked out at 10 µL/min/mg; in data set [3], 6 µL/min/mg. The molecule also registered a logD in data set [4] of 1.69.
In the same order, the values of `CC(C)[C@H](Nc1ncnc(N)c1Cl)c1ccc2c(c1)S(=O)(=O)CCC2` (racemic) are 10.1 ×10⁻⁶ cm/s, 204 µL/min/mg, 79 µL/min/mg and 2.4.
For `O=C(Nc1ccc2c(c1)CNC2)c1cc(Cl)cc2cn[nH]c12`, the kinetic solubility turned out to be 184 µM (≈ 57.5 µg/mL). Further, the Papp in data set [1] was 4.63 ×10⁻⁶ cm/s. This molecule also displayed a microsomal CLint in data set [2] of 54 µL/min/mg. The logD in data set [4] was determined as 1.2.
For `N#Cc1cccc(-c2nc3c(C(=O)Nc4ccc5c(c4)CNC5)cc(F)cc3[nH]2)c1`, the kinetic solubility was found to be 3 µM (≈ 1.19 µg/mL). In data set [2], this molecule had a microsomal CLint of 22 µL/min/mg. The same molecule had a logD in data set [4] of 2.
In turn, `O=C(Nc1cc2c(c(C3=CCOCC3)c1)CNC2)c1cc(F)cc2[nH]ncc12` registered a solubility (kinetic) of 157 µM (≈ 59.4 µg/mL). Moreover, the Papp in data set [1] is 1.1 ×10⁻⁶ cm/s. For the same molecule, the microsomal CLint in data set [2] worked out at 152 µL/min/mg. Also, the logD in data set [4] stood at 0.9.
Consider `CCNC(=O)c1cc2c(N[C@H](c3ccc4c(c3)S(=O)(=O)CCC4)C(C)C)ncnc2[nH]1` (single isomer, unassigned), for which the solubility (kinetic) is 337 µM and 316 µM. The Papp in data set [1] is 0.717 ×10⁻⁶ cm/s and 0.532 ×10⁻⁶ cm/s. For the same molecule, in data set [2], the microsomal CLint was 64 µL/min/mg and 54 µL/min/mg. Also, in data set [4], the logD was 2.7 and 2.8.
`O=C(Nc1ccc2c(c1)CNC2)c1cc(Cl)cc2ccncc12` registered a solubility (kinetic) of 181 µM (≈ 58.6 µg/mL). For the same molecule, the Papp in data set [1] was 3.42 ×10⁻⁶ cm/s. The microsomal CLint in data set [2] was determined as 24.5 µL/min/mg. The molecule further had a logD in data set [4] of 0.6.
Take `O=C(Nc1ccc2c(c1)CNC2)c1cc(F)cc2[nH]c(-c3ccc(F)cc3)nc12`: the kinetic solubility was 6 µM (≈ 2.34 µg/mL). The same molecule came in with a Papp in data set [1] of 0.1 ×10⁻⁶ cm/s. This molecule also registered a microsomal CLint in data set [2] of 36.8 µL/min/mg. Also, the logD in data set [4] is 2.9.
Molecule `O=C(Nc1cc2c(c(-c3c[nH]c(=O)c(F)c3)c1)CNC2)c1cc(F)cc2[nH]ncc12` yielded a solubility (kinetic) of 66 µM (≈ 26.9 µg/mL). This molecule returned a Papp in data set [1] of 0.651 ×10⁻⁶ cm/s. This molecule returned a microsomal CLint in data set [2] of 243 µL/min/mg. This molecule also showed a logD in data set [4] of 0.4.
